Consider eight molecules from patent US20260297080A1, “BICYCLIC COMPOUNDS AS CDK INHIBITORS” (BeOne Medicines I GmbH, priority 2022, published 2026).

One test concerns the target CDK2/Cyclin E1 (Homo sapiens, UniProt P24941). As to the kind of experiment: CDK2/Cyclin E1 Biochemical Assay (TR-FRET), 1 mM ATP. The note with it: 0.15 μM Rb (Ser780)-biotin substrate, pH7.0, 60 min preincubation, 90 min reaction, room temperature. The essentials:
(§1)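 TR-FRET kinase reaction with 1 mM ATP and 0.15 μM Rb (Ser780)-biotin substrate in pH 7.0 HEPES buffer; enzyme preincubated 60 min with compound (0-10 μM), then reacted 90 min at room temperature. Phospho-Rb detected by Eu-anti-pRb/streptavidin-XL665 665/620 nm ratio; IC50 from four-parameter logistic fit.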

In the next test the target is CDK1/Cyclin B1 (Homo sapiens, UniProt P06493). As to the kind of experiment: CDK1/Cyclin B1 Biochemical Assay (TR-FRET), 1 mM ATP. Particulars: 0.15 μM Rb (Ser780)-biotin substrate, pH7.0, 60 min preincubation, 90 min reaction, room temperature. The essentials: as §1

Where only a bound is given, the exact number is not on record here.

Sequence of CDK1/Cyclin B1 (P06493 whole entry): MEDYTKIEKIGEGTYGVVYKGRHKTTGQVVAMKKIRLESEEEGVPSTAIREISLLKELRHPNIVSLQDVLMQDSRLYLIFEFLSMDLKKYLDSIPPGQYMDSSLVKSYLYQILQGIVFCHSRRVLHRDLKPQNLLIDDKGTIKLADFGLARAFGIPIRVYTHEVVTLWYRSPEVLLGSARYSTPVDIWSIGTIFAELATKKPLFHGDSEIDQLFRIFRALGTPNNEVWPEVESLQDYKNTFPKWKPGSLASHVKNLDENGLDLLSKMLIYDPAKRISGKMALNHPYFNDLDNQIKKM
Sequence of CDK1/Cyclin B1 (P14635 whole entry partner): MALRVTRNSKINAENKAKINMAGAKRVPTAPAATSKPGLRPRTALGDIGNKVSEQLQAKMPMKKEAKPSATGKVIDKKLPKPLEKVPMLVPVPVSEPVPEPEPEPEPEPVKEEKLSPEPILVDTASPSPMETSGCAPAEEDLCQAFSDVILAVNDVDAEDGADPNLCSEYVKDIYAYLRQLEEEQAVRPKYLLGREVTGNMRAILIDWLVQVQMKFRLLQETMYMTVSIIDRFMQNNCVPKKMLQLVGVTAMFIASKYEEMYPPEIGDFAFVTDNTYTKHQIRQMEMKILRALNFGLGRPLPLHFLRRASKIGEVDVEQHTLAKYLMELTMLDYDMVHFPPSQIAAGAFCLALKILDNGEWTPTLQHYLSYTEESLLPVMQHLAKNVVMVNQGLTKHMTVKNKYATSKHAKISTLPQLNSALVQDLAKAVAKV

For `CC(C)NC(=O)O[C@H]1CC[C@@H](c2cc(Nc3ccc4c(c3F)NS(=O)(=O)N4C)n[nH]2)C1` (relative stereo) [Example 467, cis-3-(3-((4-fluoro-1-methyl-2,2-dioxido-1,3-dihydrobenzo[c][1,2,5]thiadiazol-5-yl)amino)-1H-pyrazol-5-yl)cyclopentyl isopropylcarbamate], the IC50 on CDK2/Cyclin E1 was 530 nM; at CDK1/Cyclin B1 it was greater than 10000 nM.
On the same counts, the results for `CC(C)NC(=O)O[C@H]1CC[C@@H](c2cc(Nc3ccc4c(c3F)CS(=O)(=O)N4CC(C)(C)O)n[nH]2)C1` (single isomer, unassigned) [Example 254a, cis-3-(3-((4-fluoro-1-(2-hydroxy-2-methylpropyl)-2,2-dioxido-1,3-dihydrobenzo[c]isothiazol-5-yl)amino)-1H-pyrazol-5-yl)cyclopentyl isopropylcarbamate] are 12 nM and 3740 nM.
In the same order, the values of `CC(C)NC(=O)O[C@H]1CC[C@@H](c2cc(Nc3ccc4c(c3F)CS(=O)(=O)N4CC(C)(C)O)n[nH]2)C1` (single isomer, unassigned) [Example 254b, cis-3-(3-((4-fluoro-1-(2-hydroxy-2-methylpropyl)-2,2-dioxido-1,3-dihydrobenzo[c]isothiazol-5-yl)amino)-1H-pyrazol-5-yl)cyclopentyl isopropylcarbamate] are 8.9 nM and 1380 nM.
On the same counts, the results for `CN1c2ccc(Nc3cc([C@@H]4CC[C@H](OC(=O)NCC(C)(C)O)C4)[nH]n3)c(F)c2CS1(=O)=O` (single isomer, unassigned) [Example 330a, cis-3-(3-((4-fluoro-1-methyl-2,2-dioxido-1,3-dihydrobenzo[c]isothiazol-5-yl)amino)-1H-pyrazol-5-yl)cyclopentyl(2-hydroxy-2-methylpropyl)carbamate] are 84 nM and greater than 10000 nM.
In the case of `CN1c2ccc(Nc3cc([C@@H]4CC[C@H](OC(=O)NCC(C)(C)O)C4)[nH]n3)c(F)c2CS1(=O)=O` (single isomer, unassigned) [Example 330b, cis-3-(3-((4-fluoro-1-methyl-2,2-dioxido-1,3-dihydrobenzo[c]isothiazol-5-yl)amino)-1H-pyrazol-5-yl)cyclopentyl(2-hydroxy-2-methylpropyl)carbamate], the 50% inhibitory concentration (IC50) was 24 nM at CDK2/Cyclin E1 and 4090 nM against CDK1/Cyclin B1.
On the same counts, the results for `CC(C)(CO)NC(=O)O[C@H]1CC[C@@H](c2cc(Nc3ccc4c(c3F)CN(C3CC3)S4(=O)=O)n[nH]2)C1` (single isomer, unassigned) [Example 359a, cis-3-(3-((2-cyclopropyl-4-fluoro-1,1-dioxido-2,3-dihydrobenzo[d]isothiazol-5-yl)amino)-1H-pyrazol-5-yl)cyclopentyl(1-hydroxy-2-methylpropan-2-yl)carbamate] are 14 nM and 8020 nM.
For the molecule `CC(C)(CO)NC(=O)O[C@H]1CC[C@@H](c2cc(Nc3ccc4c(c3F)CN(C3CC3)S4(=O)=O)n[nH]2)C1` (single isomer, unassigned) [Example 359b, cis-3-(3-((2-cyclopropyl-4-fluoro-1,1-dioxido-2,3-dihydrobenzo[d]isothiazol-5-yl)amino)-1H-pyrazol-5-yl)cyclopentyl(1-hydroxy-2-methylpropan-2-yl)carbamate], the values for the IC50 against CDK2/Cyclin E1 and against CDK1/Cyclin B1 were 7.1 nM and 2890 nM, respectively.
On the same counts, the results for `CC(C)(CO)NC(=O)O[C@H]1CC[C@@H](c2cc(Nc3ccc4c(c3F)CS(=O)(=O)N4C3CC3)n[nH]2)C1` (single isomer, unassigned) [Example 363a, cis-3-(3-((1-cyclopropyl-4-fluoro-2,2-dioxido-1,3-dihydrobenzo[c]isothiazol-5-yl)amino)-1H-pyrazol-5-yl)cyclopentyl(1-hydroxy-2-methylpropan-2-yl)carbamate] are 2.2 nM and 2420 nM.
